The target of the experiment is T1, full-length SARM1 (FL-SARM1) (Homo sapiens, UniProt Q6SZW1).
T1 sequence (Q6SZW1 28-724): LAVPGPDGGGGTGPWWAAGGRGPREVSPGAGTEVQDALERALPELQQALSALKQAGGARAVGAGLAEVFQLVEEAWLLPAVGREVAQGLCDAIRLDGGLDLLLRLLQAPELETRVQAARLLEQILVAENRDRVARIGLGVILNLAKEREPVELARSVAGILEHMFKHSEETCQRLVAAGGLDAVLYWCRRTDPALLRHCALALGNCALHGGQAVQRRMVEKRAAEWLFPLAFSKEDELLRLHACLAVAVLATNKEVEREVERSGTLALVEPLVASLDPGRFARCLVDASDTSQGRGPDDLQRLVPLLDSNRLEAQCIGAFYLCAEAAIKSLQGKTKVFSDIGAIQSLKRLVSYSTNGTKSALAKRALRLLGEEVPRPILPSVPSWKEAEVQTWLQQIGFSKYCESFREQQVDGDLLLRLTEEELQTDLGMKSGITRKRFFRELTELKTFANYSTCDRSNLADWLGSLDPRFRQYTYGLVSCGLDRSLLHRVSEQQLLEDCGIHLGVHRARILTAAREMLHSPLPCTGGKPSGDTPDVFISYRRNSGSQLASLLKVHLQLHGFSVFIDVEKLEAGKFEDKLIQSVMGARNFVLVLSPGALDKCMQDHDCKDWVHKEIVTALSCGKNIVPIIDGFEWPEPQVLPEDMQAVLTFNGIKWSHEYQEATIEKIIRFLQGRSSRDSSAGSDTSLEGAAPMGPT
In words: FL-SARM1 cellular lysate assay (NAD/NADH-Glo detection of remaining NAD+, NMN-activated).

Where [1] appears, read: Activity (μM) (IC50), 11 point curve.
Where [2] appears, read: read-out: Activity (IC50 class), 11 point curve.
Setting [3] is: Activity (IC50 class), 11 point curve.

Like-named read-outs stand apart in the source and are kept apart here.

The values below come from US20250171462A1 (NICO Therapeutics, Inc., priority 2022, published 2025).

On to `O=C(Nc1ccc(C(F)(F)F)c(-c2ncc(F)cn2)c1)N1C2CC3CC(C2)CC1C3` [Example 310, N-(3-(5-fluoropyrimidin-2-yl)-4-(trifluoromethyl)phenyl)-2-azaadamantane-2-carboxamide], for which the IC50 (as a rule, the concentration that inhibits the measured activity by half) reads like this: under setting [1], 0.7 µM; under setting [2], 0.0001 to 1 µM.
Turning to `Cc1ccc(NC(=O)N2C3C[C@@H](C)C[C@@H]2C3)cc1-c1ncc(F)cn1` [Example 50, trans-N-(3-(5-fluoropyrimidin-2-yl)-4-methylphenyl)-3-methyl-6-azabicyclo[3.1.1]heptane-6-carboxamide], the IC50 under setting [1] was 0.02 µM and the 50% inhibitory concentration (IC50) under setting [2] is 0.0001 to 1 µM.
`Cc1ccc(NC(=O)[C@H]2CC[C@@H](C)N2c2ccc(C#N)cn2)cc1-c1ncc(F)cn1` [Example 285, (2R,5R)-1-(5-cyanopyridin-2-yl)-N-[3-(5-fluoropyrimidin-2-yl)-4-methylphenyl]-5-methylpyrrolidine-2-carboxamide] gave a concentration for half-maximal inhibition (IC50) under setting [3] of 1 to 10 µM and an IC50 under setting [1] of 2.2 µM.
Regarding `Cc1ccc(NC(=O)[C@H]2C[C@@H]2c2ccccc2)cc1-c1ncc(F)cn1` (racemic) [Example 257, trans-N-(3-(5-fluoropyrimidin-2-yl)-4-methylphenyl)-2-phenylcyclopropane-1-carboxamide], the IC50 is, setting by setting: under setting [3], over 10 µM; under setting [1], 30 µM.
Consider `Cc1ccc(NC(=O)[C@H]2C[C@H]2c2ccccc2)cc1-c1cccnn1` [Example 298, (1S,2R)-N-(4-methyl-3-pyridazin-3-ylphenyl)-2-phenylcyclopropane-1-carboxamide], for which the concentration for half-maximal inhibition (IC50) is 0.6 µM under setting [1] and 0.0001 to 1 µM under setting [2].
Consider `Cc1ccc(NC(=O)[C@H]2[C@@H](C)CCN2c2ccccn2)cc1-c1ncc(F)cn1` [Example 277, (2R,3S)-N-[3-(5-fluoropyrimidin-2-yl)-4-methylphenyl]-3-methyl-1-pyridin-2-ylpyrrolidine-2-carboxamide], for which the IC50 reads like this: under setting [3], 1 to 10 µM; under setting [1], 1.4 µM.
In the case of `Cc1ccc(NC(=O)C(C)(C)C2CCC2)cc1-c1cccnn1` [Example 296, 2-cyclobutyl-2-methyl-N-(4-methyl-3-pyridazin-3-ylphenyl)propanamide], the concentration for half-maximal inhibition (IC50) was 1 to 10 µM under setting [3] and 4.3 µM under setting [1].
With `Cc1ccc(NC(=O)[C@H]2C[C@H]3C[C@H]3N2c2ccncn2)cc1-c1ncc(F)cn1` [Example 265, (1R,3R,5R)-N-[3-(5-fluoropyrimidin-2-yl)-4-methylphenyl]-2-pyrimidin-4-yl-2-azabicyclo[3.1.0]hexane-3-carboxamide], the IC50 by setting is: under setting [3], 1 to 10 µM; under setting [1], 1.9 µM.
As for `Cc1cnc(-c2cc(NC(=O)N3C4C[C@@H](C)C[C@H]3C4)c(F)cc2C)nn1` [Example 239, cis-N-[2-fluoro-4-methyl-5-(6-methyl-1,2,4-triazin-3-yl)phenyl]-3-methyl-6-azabicyclo[3.1.1]heptane-6-carboxamide], the IC50 under setting [1] stood at 0.2 µM and the 50% inhibitory concentration (IC50) under setting [2] lay within 0.0001 to 1 µM.
As to `Cc1ccc(NC(=O)N2C3CCCC2C3)cc1-c1ncc(F)c(C)n1` [Example 326], the half-inhibitory concentration (IC50) runs as follows: under setting [3], 1 to 10 µM; under setting [1], 1.4 µM.
On to `Cc1ccc(NC(=O)N2C3CC2CN(C2CCC2)C3)cc1-c1ccccn1` [Example 6, 3-Cyclobutyl-N-(4-methyl-3-(pyridin-2-yl)phenyl)-3,6-diazabicyclo[3.1.1]heptane-6-carboxamide], for which the IC50 by setting is: under setting [3], 1 to 10 µM; under setting [1], 4.2 µM.
For the compound `Cc1ccc(NC(=O)N2[C@@H]3C[C@@H](C)C[C@H]2C3)cc1-c1cncc(C(F)(F)F)n1` [Example 228, cis-3-methyl-N-[4-methyl-3-[6-(trifluoromethyl)pyrazin-2-yl]phenyl]-6-azabicyclo[3.1.1]heptane-6-carboxamide], the IC50 by setting is: under setting [1], 0.09 µM; under setting [2], 0.0001 to 1 µM.
For the compound `Cc1cc(F)c(NC(=O)N2CCOc3cccnc3C2C)cc1-c1cccnn1` (stereo not shown) [Example 182, N-(2-fluoro-4-methyl-5-(pyridazin-3-yl)phenyl)-5-methyl-2,3-dihydropyrido[2,3-f][1,4]oxazepine-4(5H)-carboxamide], the IC50 reads like this: under setting [3], 1 to 10 µM; under setting [1], 6 µM.
For `Cc1cc(F)c(NC(=O)N2[C@@H]3C[C@@H](C)C[C@@]2(C(C)(C)O)C3)cc1-c1ncc(F)cn1` (racemic) [Example 183, cis-N-(2-fluoro-5-(5-fluoropyrimidin-2-yl)-4-methylphenyl)-1-(2-hydroxypropan-2-yl)-3-methyl-6-azabicyclo[3.1.1]heptane-6-carboxamide], it took 0.06 µM to reach half-maximal inhibition under setting [1] (IC50) and the half-inhibitory concentration (IC50) under setting [2] lay in the range of 0.0001 to 1 µM.
Take `N#CCc1ccc(NC(=O)[C@@H]2CC2(F)F)cc1-c1ccccn1` [Example 145, (1S)-N-[4-(cyanomethyl)-3-pyridin-2-ylphenyl]-2,2-difluorocyclopropane-1-carboxamide]: the IC50 was 1 to 10 µM under setting [3] and 5 µM under setting [1].
`COc1ccc(-c2cc(NC(=O)N3C4CCCC3C4)ccc2C)nn1` [Example 60, N-(3-(6-methoxypyridazin-3-yl)-4-methyl-phenyl)-6-azabicyclo[3.1.1]heptane-6-carboxamide]: the IC50 under setting [3] was 1 to 10 µM and half-maximal inhibition under setting [1] (IC50) required 1.1 µM.
For `O=C(Nc1cccc(-c2ccccn2)c1)[C@@H]1CC1(F)F` [Example 131, (1S)-2,2-difluoro-N-(3-pyridin-2-ylphenyl)cyclopropane-1-carboxamide], in that order: over 10 µM and 18 µM.
As to `Cc1ccc(NC(=O)[C@H]2[C@H](C)C2(F)F)cc1-c1ccccn1` (racemic) [Example 135, trans-2,2-difluoro-3-methyl-N-(4-methyl-3-pyridin-2-ylphenyl)cyclopropane-1-carboxamide], the half-inhibitory concentration (IC50) was 1 to 10 µM under setting [3] and 3.3 µM under setting [1].
Take `Cc1ccc(NC(=O)N2C3CCCC2C3)cc1-c1nccc(C(F)(F)F)n1` [Example 68, N-(4-methyl-3-(4-(trifluoromethyl)pyrimidin-2-yl)phenyl)-6-azabicyclo[3.1.1]heptane-6-carboxamide]: the concentration for half-maximal inhibition (IC50) is, setting by setting: under setting [3], 1 to 10 µM; under setting [1], 4.7 µM.
Turning to `Cc1ccc(NC(=O)N2C3CCCC2C3)cc1-c1cnccn1` [Example 53, N-(4-methyl-3-(pyrazin-2-yl)phenyl)-6-azabicyclo[3.1.1]heptane-6-carboxamide], the IC50 under setting [1] amounted to 0.8 µM and the IC50 under setting [2] lay in the range of 0.0001 to 1 µM.
On to `O=C(Nc1ccc(C(F)(F)F)c(-c2ccc(F)cn2)c1)N1C2CCC1c1ccccc12` [Example 57, N-(3-(5-fluoropyridin-2-yl)-4-(trifluoromethyl)phenyl)-1,2,3,4-tetrahydro-1,4-epiminonaphthalene-9-carboxamide], for which the 50% inhibitory concentration (IC50) is 1 to 10 µM under setting [3] and 3.7 µM under setting [1].
For the compound `Cc1ccc(NC(=O)C2CC3(CC3)C2)cc1-c1ccccn1` [Example 119, N-(4-methyl-3-pyridin-2-ylphenyl)spiro[2.3]hexane-5-carboxamide], the IC50 was 1 to 10 µM under setting [3] and 1.9 µM under setting [1].
As for `CO[C@H]1C[C@@H]2C[C@H](C1)N2C(=O)Nc1ccc(C)c(-c2ccccn2)c1` [Example 45, trans-3-Methoxy-N-(4-methyl-3-(pyridin-2-yl)phenyl)-6-azabicyclo[3.1.1]heptane-6-carboxamide], the IC50 by setting is: under setting [1], 0.5 µM; under setting [2], 0.0001 to 1 µM.
